Laboratory results published in patent US7186695B2 (priority 2001, dated 2007).
“Also recorded” adds a separate entry of the source.

Tests used:
BAE cells = assay: cells; conditions: Bos taurus, Endothelial cell, 24 h, read-out: IC50 for viability
bovine serum albumin = bovine serum albumin (Bos taurus, UniProt P02769); assay: Incorporation of GSAO-B into purified protein, streptavidin-peroxidase blot (negative control protein); format: binding; conditions: GSAO-B 100 μM, protein 5 μM, 30 minutes
Description: (§1) FIG. 14. Interaction of GSAO-B with PDI and thioredoxin. A Structure of GSAO-B. B Purified human recombinant PDI (5 μM), human recombinant thioredoxin (5 μM) or bovine serum albumin (5 μM) was incubated with dithiothreitol (10 μM) for 60 minutes at room temperature to ensure that the active site disulfide(s) of PDI and thioredoxin were in the reduced dithiol form. GSAO-B (100 μM) or GSAO-B and DMP (400 μM) was then added and the reactions incubated for 30 minutes at room temperature. The labelled PDI (lanes 1 and 2), thioredoxin (lanes 3 and 4) and albumin (lane 5) (75 pmoles) was resolved on […] SDS-PAGE, transferred to PVDF membrane, and blotted with streptavidin-peroxidase to detect the GSAO-B label. The positions of Mr markers are shown at left.
Human recombinant PDI and thioredoxin bound GSAO-B (FIG. 14). Recombinant human protein disulfide isomerase (PDI) was produced in E. coli and purified according to Jiang et al. (1999). […] Proteins were detected by Western blot using an anti-PDI murine monoclonal antibody (Jiang et al., 1999) (used at 2 μg per mL). […] Chemiluminescence films were analysed using a GS-700 Imaging Densitometer and Multi-Analyst software (Bio-Rad, Hercules, Calif.).

[1] = test system: PDI on the endothelial cell surface; assay: GSAO-B labelling of cell surface PDI, streptavidin-agarose pull-down and anti-PDI blot; format: cell-based, bovine; conditions: GSAO-B 100 μM, absence of DMP
Description: FIG. 17. PDI was one of the GSAO-B labelled proteins on the endothelial cell surface. HUVEC (5×10^6 cells in 0.75 mL) were labelled with GSAO-B (100 μM) for 30 minutes at 37° C. in the absence (lanes 1) or presence of DMP (400 μM) (lane 2). The cells were lysed and incubated with streptavidin-agarose beads to collect the biotin-labelled proteins. The labelled proteins were resolved on 4–15% SDS-PAGE, transferred to PVDF membrane, and blotted with anti-PDI monoclonal antibodies. The results represent labelling of 5×10^6 endothelial cells. The positions of Mr markers are shown at left.
BAE cells were labelled with GSAO-B in the absence or presence of DMP, lysed and incubated with streptavidin-agarose beads to collect the biotin-labelled proteins. The labelled proteins were eluted from the beads, resolved on SDS-PAGE, transferred to PVDF membrane, and blotted with anti-PDI polyclonal antibodies.

HMEC-1 or HUVE cells = assay: Labelling of endothelial cell surface proteins with GSAO-B; format: cell-based, human; conditions: GSAO-B 100 μM, 30 minutes
Description: FIG. 16. Identification of endothelial cell surface proteins that contain closely spaced dithiol(s). A The surface of HMEC-1 or HUVE cells (2×10^6 cells in 0.4 mL) was labelled with GSAO-B (100 μM) for 30 minutes at room temperature in the absence (lanes 1 and 3) or presence of DMP (400 μM) (lane 2). The endothelial cells were lysed and the lysate from both incubations was resolved on 4–15% SDS-PAGE, transferred to PVDF membrane, and blotted with streptavidin peroxidase to detect the GSAO-B label. The results represent labelling of 3×10^4 HMEC-1 (lanes 1 and 2) of HUVE cells (lane 3). The positions of Mr markers are shown at left. B Densitometry profile of the surface labelled proteins (lanes 1 and 3). The apparent Mr's of the individual proteins are indicated.
Human umbilical vein endothelial cells (HUVEC) (Wall et al., 1978) and the human dermal microvascular endothelial cell line, HMEC-1 (Ades et al., 1992), were harvested and cultured as indicated. […] Bound proteins were washed 5 times with 50 mM Tris/HCl, pH 8 buffer containing 0.15 M NaCl and 0.05% Triton X-100, resolved on SDS-PAGE, transferred to PVDF membrane, and the GSAO-B-labelled proteins detected by Western blot.

Human recombinant PDI = biological target: T1, Human recombinant PDI (Homo sapiens, UniProt P07237); assay: Incorporation of GSAO-B into purified protein, streptavidin-peroxidase blot; format: binding
T1 construct: made in house; host or cells: E. coli
Description: as §1
(§2) Human recombinant PDI and thioredoxin bound GSAO-B (FIG. 14). Recombinant human protein disulfide isomerase (PDI) was produced in E. coli and purified according to Jiang et al. (1999). In the experiment, purified PDI, thioredoxin or albumin as negative control were incubated with a 2-fold molar excess of dithiothreitol for 60 minutes to ensure that the active site disulfides of PDI and thioredoxin were in the reduced dithiol state. The proteins were then incubated with GSAOB or GSAO-B and a 4-fold molar excess of DMP for 30 minutes. Equivalent moles of the labelled proteins were resolved on SDS-PAGE, transferred to PVDF membrane, and blotted with streptavidin-peroxidase to detect the GSAO-B label. Samples were resolved on 4–15% SDS-PAGE under non-reducing conditions (Laemmli, 1970) and transferred to PVDF membrane. Proteins were detected by Western blot using an anti-PDI murine monoclonal antibody (Jiang et al., 1999) (used at 2 μg per mL). Rabbit anti-mouse horseradish peroxidase conjugated antibodies (Dako Corporation, Carpinteria, Calif.) were used at 1:2000 dilution. GSAO-B-labelled proteins were blotted with streptavidin peroxidase (Amersham, Sydney, NSW) used at 1:1000 dilution. […] Chemiluminescence films were analysed using a GS-700 Imaging Densitometer and Multi-Analyst software (Bio-Rad, Hercules, Calif.).

Thioredoxin = biological target: T2, Thioredoxin (Homo sapiens, UniProt P10599); assay: as above; format: binding; conditions: GSAO-B 100 μM, protein 5 μM, 30 minutes
T2 construct: purchased American Diagnostica, Greenwich, Conn; host or cells: E. coli
T2 sequence (P10599 1-105): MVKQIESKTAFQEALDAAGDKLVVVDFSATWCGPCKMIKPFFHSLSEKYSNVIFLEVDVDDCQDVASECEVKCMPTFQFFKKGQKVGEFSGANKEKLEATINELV
Description: as §1, §2

T1 sequence (P07237 18-508): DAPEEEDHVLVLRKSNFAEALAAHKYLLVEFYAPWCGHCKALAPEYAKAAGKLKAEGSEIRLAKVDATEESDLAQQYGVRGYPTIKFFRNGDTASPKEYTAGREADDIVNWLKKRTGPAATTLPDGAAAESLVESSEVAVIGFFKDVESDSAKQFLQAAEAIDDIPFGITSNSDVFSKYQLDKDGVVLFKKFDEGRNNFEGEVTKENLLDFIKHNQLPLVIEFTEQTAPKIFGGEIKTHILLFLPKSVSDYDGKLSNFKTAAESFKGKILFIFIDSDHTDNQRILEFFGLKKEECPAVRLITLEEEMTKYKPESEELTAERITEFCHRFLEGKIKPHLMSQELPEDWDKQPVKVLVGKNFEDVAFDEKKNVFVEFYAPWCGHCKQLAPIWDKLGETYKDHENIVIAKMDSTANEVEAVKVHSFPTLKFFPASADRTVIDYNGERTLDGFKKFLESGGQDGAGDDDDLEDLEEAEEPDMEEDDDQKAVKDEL
bovine serum albumin, sequence (P02769 25-607): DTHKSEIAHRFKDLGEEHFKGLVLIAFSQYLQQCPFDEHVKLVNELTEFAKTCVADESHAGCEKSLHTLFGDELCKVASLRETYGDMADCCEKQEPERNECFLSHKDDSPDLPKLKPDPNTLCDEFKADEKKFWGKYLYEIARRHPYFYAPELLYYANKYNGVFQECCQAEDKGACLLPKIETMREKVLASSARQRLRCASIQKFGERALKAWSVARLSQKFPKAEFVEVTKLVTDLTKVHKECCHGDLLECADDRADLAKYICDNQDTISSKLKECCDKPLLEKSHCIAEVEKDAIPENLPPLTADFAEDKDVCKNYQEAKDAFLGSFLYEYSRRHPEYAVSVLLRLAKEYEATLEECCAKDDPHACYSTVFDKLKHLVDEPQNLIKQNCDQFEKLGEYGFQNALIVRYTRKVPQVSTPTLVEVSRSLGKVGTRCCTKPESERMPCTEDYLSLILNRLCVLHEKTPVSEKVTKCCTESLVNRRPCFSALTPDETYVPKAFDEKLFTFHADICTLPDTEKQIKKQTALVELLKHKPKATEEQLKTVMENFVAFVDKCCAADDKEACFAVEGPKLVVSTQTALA

O=[As]c1ccc(NC(=O)CSCCC(=O)N[C@@H](CS(=O)(=O)O)C(=O)O)cc1 (stereo partly drawn) [Cys*AO, N-(3-(4-arsenosophenylcarbamoylmethylthio)propanoyl)-L-cysteic acid]
IC50 (BAE cells): < 10 µM

O=[As]c1ccc(NC(=O)CSCCC(=O)N[C@H]2C(O)O[C@H](CO)[C@@H](O)[C@@H]2O)cc1 (stereo partly drawn) [GlcAO, N-(3-(4-arsenosophenylcarbamoylmethylthio)propanoyl)-D-glucosamine]
IC50 (BAE cells): < 1 µM

O=[As]c1ccc(NC(=O)CSCCC(=O)N[C@@H](CCC(=O)O)C(=O)O)cc1 (stereo partly drawn) [GluAO, N-(3-(4-arsenosophenylcarbamoylmethylthio)propanoyl)-L-glutamic acid]
IC50 (BAE cells): < 10 µM

O=[As]c1ccc(NC(=O)CSCCC(=O)N[C@@H](CC(=O)O)C(=O)O)cc1 (stereo partly drawn) [AspAO, N-(3-(4-arsenoso-phenylcarbamoylmethylthio)propanoyl)-L-aspartic acid]
IC50 (BAE cells): < 1 µM

4-(N-(S-(N-(6-(N-(6-(N-(biotinoyl)-amino)hexanoyl)amino)hexanoyl)glutathiony)acetyl)amino)phenylarsenoxide [GSAO-B]
incorporation of GSAO-B (bovine serum albumin): albumin did not | labelling of cell surface PDI by GSAO-B [1]: PDI was one of the proteins on the endothelial cell surface that incorporated GSAO-B | proteins on the endothelial cell surface that incorporated GSAO-B (HMEC-1 or HUVE cells): approximately ten proteins | incorporation of GSAO-B (Human recombinant PDI; GSAO-B 100 μM, protein 5 μM, 30 minutes): bound GSAO-B; also recorded: incorporated GSAO-B | density of labelling of PDI relative to thioredoxin (Human recombinant PDI; equivalent moles of labelled proteins): approximately twice | incorporation of GSAO-B (Thioredoxin): bound GSAO-B; also recorded: incorporated GSAO-B
